Results published in patent publication EP4463162B1, “CONNEXIN 43 FOR USE IN TREATING BRCA1/2-MUTATED CANCER” (Fundación Profesor Novoa Santos, priority 2022, dated 2023).

Experiments:
[1] = tested on: HCC1937 cells; assay: Proliferation assay (Cell Counting Kit-8); format: cell-based, human; conditions: Cx43_HCC1937 compared to EV_HCC1937; 100 and 200 µM olaparib, over 96 h, all concentrations and time points
Protocol: Proliferation of tumour cell lines was evaluated using the Cell Counting Kit-8 (Dojindo Molecular Technologies). This kit comprises WST-8, a highly water-soluble tetrazolium salt, which upon reduction by cellular dehydrogenases of viable cells, gives rise to a yellow formazan dye that is solube in cell culture media and can be quantitated. Briefly, similar number of cells (1 000-5 000) were plated in 96-well plates (Corning) and left to grow for the desired time period under different treatment conditions. Then, medium was renewed (100 µL volume/well) and 10 µL of CCK-8 reagent were added to each well. Plates were incubated in the dark for 3 h at 37 °C, and absorbance was measured at 450 nm in a NanoQuant Infinite 200 plate reader (Tecan).
Cell viability was either relativized to untreated controls for each cell line at each time point, in order to account for the already reduced proliferation of Cx43-restituted cells (top graph) or reported as raw absorbance value (bottom graph).
To further characterize its involvement in BRCA1/2 mutated cancer, Cx43 was restituted by plasmid transfection in BRCA1 mutated TNBC and ovarian carcinoma cell lines, HCC1937 and SNU251, respectively. […]

[2] = tested on: HCC1937 cells; assay: Intracellular reactive oxygen species (ROS) measurement (DCFDA); format: cell-based, human; conditions: 96 h
Protocol: Then, ROS production was determined using the DCFDA/H2DCFDA - Cellular ROS Assay Kit (Abcam) following manufacturer's instructions. […] Afterwards, all cell conditions were washed with 100 µL/well of 1X Buffer and then stained with 100 µL/well of 25 µM 2',7' -dichlorofluorescin diacetate (DCFDA) working solution for 45 min at 37 °C in the dark. DCFDA is a fluorogenic dye, deacetylated by cellular esterases to a non-fluorescent compound, eventually oxidized by ROS into the highly fluorescent 2', 7' -dichlorofluorescein (DCF). DCFDA solution was removed and cells were washed once with phenol red-free DMEM with 10 % FBS. They were left for 1 h at 37 °C and fluorescence was measured in a Synergy HTX plate reader (BioTek) at 485/+-20 nm (excitation) and 528/+-20 nm (emission).
After ROS measurement, CCK-8 proliferation assay was performed. Briefly, medium was removed and replenished with 100 µL/well of complete RPMI. 10 µL of CCK-8 reagent were added to each well, and cells were incubated at 37 °C in the dark for 3 h. Absorbance was measured at 450 nm in a NanoQuant Infinite 200 plate reader (Tecan).
Background fluorescence of phenol red-free DMEM with 10 % FBS was subtracted from all ROS fluorescence values, which were then normalized against their respective proliferation absorbance values. Each experimental condition was further normalized against its untreated counterpart. […]

In the case of `O=C(c1cc(Cc2n[nH]c(=O)c3ccccc23)ccc1F)N1CCN(C(=O)C2CC2)CC1` [Olaparib, olaparib], the “cell viability (proliferation assay)” value [1] is reported as “robust and significant decrease in cell viability”, the ROS production ([2]; Cx43_HCC1937, olaparib 50 and 100 µM) is reported as “increased” and the ROS production ([2]; EV_HCC1937, olaparib 50 and 100 µM, dose-dependent) is reported as “diminished”.
